# According to PubChem BioAssay AID328 (DTP/NCI, 2004):
# Values joined by “and” are separate entries in the source; they are usually repeats but may differ in a detail not shown here. Equal values may be shown once. Toxic doses and inconclusive results are not listed.
# Tested on: BDF1 mice, P388 leukemia ip, median survival T/C
# Assay: NCI In Vivo Anticancer Drug Screen. Data for tumor model P388 Leukemia (intraperitoneal) in B6D2F1 (BDF1) mice
# Conditions: endpoint: median survival time, higher = longer survival
# Outline: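 Transplantable tumour in mice; compound vs vehicle dosing; survival scored; ratio of treated to control reported.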
# [1] = dose: 25.0 mg/kg/injection, schedule: Q01DX009 (ip), vehicle: saline
# [2] = dose: 12.5 mg/kg/injection, schedule: Q01DX009 (ip), vehicle: saline with Tween-80
# [3] = dose: 25.0 mg/kg/injection, schedule: Q01DX009 (ip), vehicle: saline with Tween-80
# [4] = dose: 50.0 mg/kg/injection, schedule: Q01DX009 (ip), vehicle: saline with Tween-80
# [5] = dose: 100.0 mg/kg/injection, schedule: Q01DX009 (ip), vehicle: Klucel (hydroxypropylcellulose) (HPC)
# [6] = dose: 200.0 mg/kg/injection, schedule: Q01DX009 (ip), vehicle: Klucel (hydroxypropylcellulose) (HPC)
# [7] = dose: 400.0 mg/kg/injection, schedule: Q01DX009 (ip), vehicle: Klucel (hydroxypropylcellulose) (HPC)
# [8] = dose: 50.0 mg/kg/injection, schedule: Q01DX009 (ip), vehicle: saline
# [9] = dose: 100.0 mg/kg/injection, schedule: Q01DX009 (ip), vehicle: saline
# [10] = dose: 200.0 mg/kg/injection, schedule: Q01DX009 (ip), vehicle: saline
# [11] = dose: 100.0 mg/kg/injection, schedule: Q01DX009 (ip), vehicle: saline with Tween-80
# [12] = dose: 200.0 mg/kg/injection, schedule: Q01DX009 (ip), vehicle: saline with Tween-80
# [13] = dose: 100.0 mg/kg/injection, schedule: Q04DX003 (ip), vehicle: saline with Tween-80
# [14] = dose: 200.0 mg/kg/injection, schedule: Q04DX003 (ip), vehicle: saline with Tween-80
# [15] = dose: 400.0 mg/kg/injection, schedule: Q04DX003 (ip), vehicle: saline with Tween-80
# [16] = dose: 50.0 mg/kg/injection, schedule: Q04DX003 (ip), vehicle: saline with Tween-80
smiles,measurement,setting,value
COC(=O)CC1(O)C=CC(=O)C=C1,T/C,"dose: 2.0 mg/kg/injection, schedule: Q01DX009 (ip), vehicle: saline",165 % of control
same,T/C,"dose: 5.0 mg/kg/injection, schedule: Q01DX009 (ip), vehicle: saline",114 % of control
same,T/C,"dose: 10.0 mg/kg/injection, schedule: Q01DX009 (ip), vehicle: saline",116 % of control
same,T/C,[1],153 % of control
Cc1ccc(C[n+]2cccc3c([N+](=O)[O-])cccc32)cc1,T/C,[2],108 % of control
same,T/C,[3],103 % of control
same,T/C,[4],113 % of control
Cc1ccc(S(=O)(=O)OCCC2CCCCC2COS(=O)(=O)c2ccc(C)cc2)cc1 (configuration not stated),T/C,[5],105 % of control
same,T/C,[6],100 % of control
same,T/C,[7],110 % of control
ClC(Cl)(Cl)c1ccc(C(Cl)(Cl)Cl)cc1,T/C,"dose: 6.0 mg/kg/injection, schedule: Q01DX009 (ip), vehicle: Klucel (hydroxypropylcellulose) (HPC)",100 % of control
same,T/C,"dose: 6.25 mg/kg/injection, schedule: Q01DX009 (ip), vehicle: Klucel (hydroxypropylcellulose) (HPC)",90 % of control
same,T/C,"dose: 12.0 mg/kg/injection, schedule: Q01DX009 (ip), vehicle: Klucel (hydroxypropylcellulose) (HPC)",104 % of control
same,T/C,"dose: 12.5 mg/kg/injection, schedule: Q01DX009 (ip), vehicle: Klucel (hydroxypropylcellulose) (HPC)",90 % of control
same,T/C,"dose: 12.5 mg/kg/injection, schedule: Q04DX003 (ip), vehicle: Klucel (hydroxypropylcellulose) (HPC)",105 % of control
same,T/C,"dose: 22.0 mg/kg/injection, schedule: Q04DX003 (ip), vehicle: Klucel (hydroxypropylcellulose) (HPC)",96 % of control and 118 % of control
same,T/C,"dose: 25.0 mg/kg/injection, schedule: Q01DX009 (ip), vehicle: Klucel (hydroxypropylcellulose) (HPC)",104 % of control
same,T/C,"dose: 25.0 mg/kg/injection, schedule: Q04DX003 (ip), vehicle: Klucel (hydroxypropylcellulose) (HPC)",120 % of control
same,T/C,"dose: 33.0 mg/kg/injection, schedule: Q04DX003 (ip), vehicle: Klucel (hydroxypropylcellulose) (HPC)",119 % of control and 122 % of control
same,T/C,"dose: 50.0 mg/kg/injection, schedule: Q01DX009 (ip), vehicle: Klucel (hydroxypropylcellulose) (HPC)",90 % of control and 100 % of control
same,T/C,"dose: 75.0 mg/kg/injection, schedule: Q04DX003 (ip), vehicle: Klucel (hydroxypropylcellulose) (HPC)",100 % of control
same,T/C,[5],100 % of control
same,T/C,"dose: 150.0 mg/kg/injection, schedule: Q04DX003 (ip), vehicle: Klucel (hydroxypropylcellulose) (HPC)",109 % of control
same,T/C,"dose: 250.0 mg/kg/injection, schedule: Q04DX003 (ip), vehicle: Klucel (hydroxypropylcellulose) (HPC)",100 % of control
same,T/C,"dose: 400.0 mg/kg/injection, schedule: Q04DX003 (ip), vehicle: Klucel (hydroxypropylcellulose) (HPC)",104 % of control
CC(NC(C)(C)C)C(=O)c1cccc(Cl)c1 (configuration not stated),T/C,"dose: 12.5 mg/kg/injection, schedule: Q01DX009 (ip), vehicle: saline",108 % of control
same,T/C,[1],112 % of control
same,T/C,[8],105 % of control
CCCCCCCCCCCC(=O)Nc1ccc(C(=O)OCC)cc1,T/C,"dose: 100.0 mg/kg/injection, schedule: Q01DX001 (ip), vehicle: saline with Tween-80",91 % of control
same,T/C,"dose: 200.0 mg/kg/injection, schedule: Q01DX001 (ip), vehicle: saline with Tween-80",87 % of control
same,T/C,"dose: 400.0 mg/kg/injection, schedule: Q01DX001 (ip), vehicle: saline with Tween-80",91 % of control
CC(C)C1OC(=O)C=C2C3(C)CC=CC4(C)C(=O)OC(C43)C3OC213 (configuration not stated),T/C,"dose: 5.0 micrograms/kg/injection, schedule: Q01DX009 (ip), vehicle: saline + alcohol",109 % of control
same,T/C,"dose: 20.0 micrograms/kg/injection, schedule: Q01DX009 (ip), vehicle: saline + alcohol",100 % of control
same,T/C,"dose: 80.0 micrograms/kg/injection, schedule: Q01DX009 (ip), vehicle: saline + alcohol",90 % of control
same,T/C,"dose: 250.0 micrograms/kg/injection, schedule: Q01DX009 (ip), vehicle: saline + alcohol",109 % of control
same,T/C,"dose: 1000.0 micrograms/kg/injection, schedule: Q01DX009 (ip), vehicle: saline + alcohol",109 % of control
same,T/C,"dose: 4000.0 micrograms/kg/injection, schedule: Q01DX009 (ip), vehicle: saline + alcohol",104 % of control
O=C(O)C1=NN(c2cc(Cl)c(S(=O)(=O)O)cc2Cl)C(=O)C1,T/C,[5],100 % of control
same,T/C,[9],110 % of control
same,T/C,"dose: 100.0 mg/kg/injection, schedule: Q04DX003 (ip), vehicle: saline",95 % of control
same,T/C,"dose: 175.0 mg/kg/injection, schedule: Q01DX009 (ip), vehicle: other",100 % of control
same,T/C,[6],108 % of control
same,T/C,[10],120 % of control
same,T/C,"dose: 200.0 mg/kg/injection, schedule: Q04DX003 (ip), vehicle: saline",95 % of control
same,T/C,"dose: 265.0 mg/kg/injection, schedule: Q01DX009 (ip), vehicle: other",88 % of control
same,T/C,[7],104 % of control
same,T/C,"dose: 400.0 mg/kg/injection, schedule: Q01DX009 (ip), vehicle: other",100 % of control
same,T/C,"dose: 400.0 mg/kg/injection, schedule: Q04DX003 (ip), vehicle: saline",118 % of control
same,T/C,"dose: 600.0 mg/kg/injection, schedule: Q01DX009 (ip), vehicle: other",88 % of control
Nc1ccc(Nc2ccccc2)c(S(=O)(=O)O)c1,T/C,[8],116 % of control
same,T/C,[9],100 % of control
same,T/C,[10],108 % of control
same,T/C,"dose: 400.0 mg/kg/injection, schedule: Q01DX009 (ip), vehicle: saline",104 % of control and 116 % of control
CC(=O)OC1=C2OC(=O)C3(C2C=CC=C1)C1C=CC=CC13 (configuration not stated),T/C,[4],116 % of control
same,T/C,[11],116 % of control
same,T/C,[12],120 % of control
Nc1nc(=O)c2ccccc2s1,T/C,[13],105 % of control
same,T/C,[14],111 % of control
same,T/C,[15],100 % of control
S=c1[nH]c2ccccc2s1.[Zn+2],T/C,[4],98 % of control
same,T/C,[11],100 % of control
same,T/C,[12],99 % of control
O=S(=O)(Nc1ccccn1)c1ccc(N(CCCl)CCCl)cc1,T/C,[4],100 % of control
same,T/C,[11],95 % of control
same,T/C,[12],90 % of control
COC(=O)c1ccccc1NC(=O)CCl,T/C,[16],100 % of control
same,T/C,[13],87 % of control
Cc1nnc2n1N=C(c1ccc(-c3ccccc3)cc1)CS2,T/C,[13],104 % of control
same,T/C,[14],92 % of control
same,T/C,[15],93 % of control
C=C(CCCCC)C(=O)/C=C/c1ccc(Cl)cc1,T/C,"dose: 100.0 mg/kg/injection, schedule: Q01DX001 (ip), vehicle: Klucel (hydroxypropylcellulose) (HPC)",109 % of control
same,T/C,"dose: 200.0 mg/kg/injection, schedule: Q01DX001 (ip), vehicle: Klucel (hydroxypropylcellulose) (HPC)",109 % of control
same,T/C,"dose: 400.0 mg/kg/injection, schedule: Q01DX001 (ip), vehicle: Klucel (hydroxypropylcellulose) (HPC)",118 % of control
COB(CCCCB(OC)OC)OC,T/C,"dose: 100.0 mg/kg/injection, schedule: Q04DX003 (ip), vehicle: saline sonified",90 % of control
same,T/C,"dose: 200.0 mg/kg/injection, schedule: Q04DX003 (ip), vehicle: saline sonified",86 % of control
same,T/C,"dose: 400.0 mg/kg/injection, schedule: Q04DX003 (ip), vehicle: saline sonified",100 % of control
CCCCCCCCCCOP(=S)(N1CC1)N1CC1,T/C,[2],108 % of control
same,T/C,"dose: 13.0 mg/kg/injection, schedule: Q04DX003 (ip), vehicle: saline with Tween-80",113 % of control
same,T/C,"dose: 20.0 mg/kg/injection, schedule: Q04DX003 (ip), vehicle: saline with Tween-80",152 % of control
same,T/C,[3],245 % of control
same,T/C,"dose: 33.0 mg/kg/injection, schedule: Q04DX003 (ip), vehicle: saline with Tween-80",169 % of control
same,T/C,"dose: 44.0 mg/kg/injection, schedule: Q04DX003 (ip), vehicle: saline with Tween-80",195 % of control
same,T/C,[4],183 % of control
same,T/C,[16],226 % of control
same,T/C,"dose: 67.0 mg/kg/injection, schedule: Q04DX003 (ip), vehicle: saline with Tween-80",272 % of control
same,T/C,"dose: 75.0 mg/kg/injection, schedule: Q04DX003 (ip), vehicle: saline with Tween-80",243 % of control
same,T/C,[13],272 % of control
same,T/C,"dose: 125.0 mg/kg/injection, schedule: Q04DX003 (ip), vehicle: saline with Tween-80",165 % of control
same,T/C,"dose: 150.0 mg/kg/injection, schedule: Q04DX003 (ip), vehicle: saline with Tween-80",272 % of control
Clc1ccc(OCc2sc3ccc(Cl)cc3c2CN2CCCCC2)cc1,T/C,"dose: 25.0 mg/kg/injection, schedule: Q04DX003 (ip), vehicle: saline with Tween-80",100 % of control
same,T/C,[16],90 % of control
same,T/C,[13],90 % of control
